# Read-outs that look alike come from different tables or passages of the source.
# Columns and labels:
# HIV protease = target: T1, HIV protease (Human immunodeficiency virus type 1 group M subtype B, UniProt P04585); assay: HIV protease enzyme assay (fluorogenic substrate 2-aminobenzoyl-Ile-Nle-Phe(p-NO2)-Gln-ArgNH2); format: biochemical
# T1 construct: HIV protease is diluted in the assay buffer to a final enzyme concentration of 12.3 nanomolar, based on a molecular weight of 10,780
# Source text: The compounds of the present invention are effective HIV protease inhibitors. Utilizing an enzyme assay as described below, the compounds set forth in the examples herein disclosed inhibited the HIV enzyme. The preferred compounds of the present invention and their calculated IC50 (inhibiting concentration 50%, i.e., the concentration at which the inhibitor compound reduces enzyme activity by 50%) values are shown in Table 8. The enzyme method is described below. The substrate is 2-aminobenzoyl-Ile-Nle-Phe(p-NO2)-Gln-ArgNH2. The positive control is MVT-101 (Miller, M. et al, Science, 246, 1149 (1989)] The assay conditions are as follows:
# The above described substrate is dissolved in DMSO, then diluted 10 fold in assay buffer. Final substrate concentration in the assay is 80 μM.
# HIV protease is diluted in the assay buffer to a final enzyme concentration of 12.3 nanomolar, based on a molecular weight of 10,780.
# The final concentration of DMSO is 14% and the final concentration of glycerol is 18%. The test compound is dissolved in DMSO and diluted in DMSO to 10× the test concentration; 10 μl of the enzyme preparation is added, the materials mixed and then the mixture is incubated at ambient temperature for 15 minutes. The enzyme reaction is initiated by the addition of 40 μl of substrate. The increase in fluorescence is monitored at 4 time points (0, 8, 16 and 24 minutes) at ambient temperature. Each assay is carried out in duplicate wells.
# HIV-1 = assay: HIV inhibition assay of acutely infected CEM cells (MTT); format: cell-based
# Description: (§1) The HIV inhibition assay method of acutely infected cells is an automated tetrazolium based calorimetric assay essentially that reported by Pauses et al, J. Virol. Methods 20, 309–321 (1988). Assays were performed in 96-well tissue culture plates. CEM cells, a CD4^+ cell line, were grown in RPMI-1640 medium (Gibco) supplemented with a 10% fetal calf serum and were then treated with polybrene (2 μg/ml). An 80 μl volume of medium containing 1×10^4 cells was dispensed into each well of the tissue culture plate. To each well was added a 100 μl volume of test compound dissolved in tissue culture medium (or medium without test compound as a is control) to achieve the desired final concentration and the cells were incubated at 37° C. for 1 hour. A frozen culture of HIV-1 was diluted in culture medium to a concentration of 5×10^4 TCID50 per ml (TCID50=the dose of virus that infects 50% of cells in tissue culture), and a 20 μL volume of the virus sample (containing 1000 TCID50 of virus) was added to wells containing test compound and to wells containing only medium (infected control cells). Several wells received culture medium without virus (uninfected control cells). Likewise, the intrinsic toxicity of the test compound was determined by adding medium without virus to several wells containing test compound. In summary, the tissue culture plates contained the following experiments:
# (§2) In experiments 2 and 4 the final concentrations of test compounds were 1, 10, 100 and 500 μg/ml. Either azidothymidine (AZT) or dideoxyinosine (ddI) was included as a positive drug control. […] DMSO was added to all control wells at an appropriate concentration.
# (§3) Following the addition of virus, cells were incubated at 37° C. in a humidified, 5% CO2 atmosphere for 7 days. Test compounds could be added on days 0, 2 and 5 if desired. On day 7, post-infection, the cells in each is well were resuspended and a 100 μl sample of each cell suspension was removed for assay. A 20 μL volume of a 5 mg/ml solution of 3-(4,5-dimethylthiazol-2-yl)-2,5-diphenyltetrazolium bromide (MTT) was added to each 100 μL cell suspension, and the cells were incubated for 4 hours at […] in a 5% CO2 environment.
# (§4) To each sample was added 100 μl of 10% sodium dodecylsulfate in 0.01 N HCl to lyse the cells, and samples were incubated overnight. The absorbance at 590 nm was determined for each sample using a Molecular Devices microplate reader. Absorbance values for each set of wells is compared to assess viral control infection, uninfected control cell response as well as test compound by cytotoxicity and antiviral efficacy.
# CEM cells = assay: Intrinsic toxicity of test compound in uninfected CEM cells (MTT); format: cell-based; settings: 7 days
# Description: as §1, §2, §3, §4
# [1] = Table 8, 80 μM substrate, 12.3 nanomolar enzyme, pH 6.4, read-out: IC50
# [2] = Human immunodeficiency virus 1, CCRF-CEM, 168 h
Compound,IC50 (HIV protease; [1]) [nM],EC50 (HIV-1; [2]) [nM],also measured
CC(C)CCN(C[C@@H](O)[C@H](Cc1ccccc1)NC(=O)[C@H](C)C(C)(C)C(=O)OCc1ccccc1)S(=O)(=O)c1ccccc1 (relative stereo) [Entry 1],80,,
"CC(C)CCN(C[C@@H](O)[C@H](Cc1ccccc1)NC(=O)[C@H](C)C(C)(C)C(=O)O)S(=O)(=O)c1ccccc1 (single isomer, unassigned) [Entry 1]",,15,
"CC(C)CCN(C[C@@H](O)[C@H](Cc1ccccc1)NC(=O)[C@H](C)C(C)(C)C(=O)O)S(=O)(=O)c1ccccc1 (single isomer, unassigned) [Entry 2]",2,,
"CC(C)CCN(C[C@@H](O)[C@H](Cc1ccccc1)NC(=O)[C@H](C)C(C)(C)C(N)=O)S(=O)(=O)c1ccccc1 (single isomer, unassigned) [Entry 2]",,9,"TD50 (CEM cells; human): 60,000 nm"
"CC(C)CCN(C[C@@H](O)[C@H](Cc1ccccc1)NC(=O)[C@H](C)C(C)(C)C(N)=O)S(=O)(=O)c1ccccc1 (single isomer, unassigned) [Entry 3]",2,,
CC(C)CN(C[C@@H](O)[C@H](Cc1ccccc1)NC(=O)[C@H](C)C(C)(C)C(=O)O)S(=O)(=O)c1ccccc1 [Entry 3],,42,"IC50 (HIV protease; Table 9, enzyme assay): 1 nM; TD50 (CEM cells; human): 220,000 nm"
CC(C)CN(C[C@@H](O)[C@H](Cc1ccccc1)NC(=O)[C@H](C)C(C)(C)C(=O)OCc1ccccc1)S(=O)(=O)c1ccccc1 [Entry 4],34,,
CC(C)CN(C[C@@H](O)[C@H](Cc1ccccc1)NC(=O)[C@H](C)C(C)(C)C(N)=O)S(=O)(=O)c1ccccc1 [Entry 4],,5,"TD50 (CEM cells; human): 62,000 nm"
CC(C)CN(C[C@@H](O)[C@H](Cc1ccccc1)NC(=O)[C@H](C)C(C)(C)C(=O)O)S(=O)(=O)c1ccccc1 [Entry 5],1,,
COc1ccc(S(=O)(=O)N(CC(C)C)C[C@@H](O)[C@H](Cc2ccccc2)NC(=O)[C@H](C)C(C)(C)C(=O)O)cc1 [Entry 5],,27,"TD50 (CEM cells; human): 200,000 nm"
COc1ccc(S(=O)(=O)N(CC(C)C)C[C@@H](O)[C@H](Cc2ccccc2)NC(=O)[C@H](C)C(C)(C)C(=O)OCc2ccccc2)cc1 [Entry 7],16,,
COc1ccc(S(=O)(=O)N(CC(C)C)C[C@@H](O)[C@H](Cc2ccccc2)NC(=O)[C@H](C)C(C)(C)C(=O)O)cc1 [Entry 8],2,,
COc1ccc(S(=O)(=O)N(CC(C)C)C[C@@H](O)[C@H](Cc2ccccc2)NC(=O)[C@H](C)C(C)(C)C(N)=O)cc1 [Entry 9],2,,
"Butanediamide, N^4-[2-hydroxy-3-[(3-methylbutyl)(phenylsulfonyl)amino]-1-(phenylmethyl)propyl]-2,2,3-Trimethyl-, [1S-[1R*(S*),2S*]]- [Table 8 Entry 3]",2,,"IC50 (HIV protease; Table 9, enzyme assay, read-out: IC50): 2 nM; TD50 (CEM cells; Table 9, CEM cells without virus): 58,000 nm; EC50 (HIV-1; Table 9, CEM cells acutely infected with HIV-1, 7 days, read-out: EC50): 5 nM"
